Test results published in patent US20250296938A1, “Compounds that Interact with the Ras Superfamily for the Treatment of Cancers, Inflammatory Diseases, Rasopathies, and Fibrotic Disease” (SHY Therapeutics, LLC, priority 2018, published 2025).
Like-named read-outs stand apart in the source and are kept apart here.

Assays:
Test in all cases: Ras GTP binding domain inhibition assay (Cy3-GTP/Cy5-GTP competition)
KRas G12C mutant = test system: KRas G12C mutant; design: species or system human; conditions: 20 μM; for KRas G12C mutant + SOS: % inh.: with SOS (Table 7A); for KRas G12C mutant: % inh.: without SOS (Table 7A)
Procedure, shortened: (§1)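 Ni-plate immobilised His-Ras, overnight 4 °C; cpd 20 μM (or dilution series for IC50), 1% DMSO, 3 h RT; optional His-Sos […] last hour; Cy3- or Cy5-GTP 100 nM, 45 min RT; 3× wash; bound fluorescence read.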

KRas Q61H mutant = test system: KRas Q61H mutant; design: species or system human; conditions: 20 μM; for KRas Q61H mutant + SOS: % inh.: with SOS (Table 7A); for KRas Q61H mutant: % inh.: without SOS (Table 7A)
Procedure, shortened: as §1

KRas wild type = test system: KRas wild type; design: species or system human; conditions: 20 μM; for KRas wild type + SOS: % inh.: with SOS (Table 7A); for KRas wild type % inh.: without SOS (Table 7A)
Procedure, shortened: as §1

KRas G12D mutant = molecular target: T1, KRas G12D mutant (Homo sapiens, UniProt P01116, G12D); conditions: 20 μM
T1 construct: fused on or other part: His tag, used for capture on nickel-coated plates
Procedure, shortened: as §1

[1] = with SOS (Table 7A), read-out: KRas G12D mutant + SOS: % inh.
[2] = without SOS (Table 7A), read-out: KRas G12D mutant: % inh.

Compound | KRas G12C mutant + SOS: % inh. (KRas G12C mutant) | KRas G12C mutant: % inh. (KRas G12C mutant) | KRas Q61H mutant + SOS: % inh. (KRas Q61H mutant) | KRas Q61H mutant: % inh. (KRas Q61H mutant) | KRas wild type + SOS: % inh. (KRas wild type) | KRas wild type % inh. (KRas wild type) | inhibition at 20 µM (KRas G12D mutant; [1]) [%] | inhibition at 20 µM (KRas G12D mutant; [2]) [%]
CO[C@H]1C[C@@H](Nc2nc(-c3ncc[nH]3)nc3sc(-c4ccn(C)n4)c(-c4ccccc4)c23)C1 [drawing 910] | B (26-50% inhibition) | B (26-50% inhibition) | B (26-50% inhibition) | C (51-75% inhibition) | A (1-25% inhibition) | B (26-50% inhibition) | 26 to 50 | 26 to 50
CO[C@H]1CC[C@@H](Nc2nc(-c3ncc[nH]3)nc3sc(-c4ccn(C)n4)c(-c4ccccc4)c23)C1 [drawing 911] | C (51-75% inhibition) | C (51-75% inhibition) | C (51-75% inhibition) | B (26-50% inhibition) | C (51-75% inhibition) | C (51-75% inhibition) | 51 to 75 | 26 to 50
CO[C@H]1CC[C@@H](Nc2nc(-c3nccn3C)nc3sc(-c4ccn(C(C)C)n4)c(-c4ccccc4)c23)C1 [drawing 912] | D (76-100% inhibition) | C (51-75% inhibition) | D (76-100% inhibition) | D (76-100% inhibition) | D (76-100% inhibition) | D (76-100% inhibition) | 51 to 75 | 51 to 75
COc1nc(-c2ccccn2)nc2c(-c3ccccn3)csc12 [drawing 913] | A (1-25% inhibition) | A (1-25% inhibition) | A (1-25% inhibition) | B (26-50% inhibition) | A (1-25% inhibition) | B (26-50% inhibition) | 1 to 25 | 26 to 50
CO[C@H]1C[C@@H](Nc2nc(-c3nccn3C)nc3sc(-c4ccn(C)n4)c(C)c23)C1 [drawing 914] | C (51-75% inhibition) | C (51-75% inhibition) | C (51-75% inhibition) | C (51-75% inhibition) | C (51-75% inhibition) | C (51-75% inhibition) | 51 to 75 | 51 to 75
CO[C@H]1CC[C@@H](Nc2nc(-c3nccn3C)nc3sc(-c4ccn(C)n4)c(C)c23)C1 [drawing 915] | D (76-100% inhibition) | C (51-75% inhibition) | D (76-100% inhibition) | C (51-75% inhibition) | D (76-100% inhibition) | C (51-75% inhibition) | 51 to 75 | 26 to 50
Cc1c(-c2ccn(C)n2)sc2nc(-c3nccn3C)nc(NCCCS(C)(=O)=O)c12 [drawing 916] | C (51-75% inhibition) | C (51-75% inhibition) | C (51-75% inhibition) | D (76-100% inhibition) | C (51-75% inhibition) | C (51-75% inhibition) | 76 to 100 | 76 to 100
Cc1c(-c2ccn(C)n2)sc2nc(-c3nccn3C)nc(NCCCC(=O)N(C)C)c12 [drawing 917] | C (51-75% inhibition) | C (51-75% inhibition) | C (51-75% inhibition) | D (76-100% inhibition) | C (51-75% inhibition) | D (76-100% inhibition) | 76 to 100 | 51 to 75
Cc1c(-c2ccn(C)n2)sc2nc(-c3nccn3C)nc(NCCOC(=O)N(C)C)c12 [drawing 918] | C (51-75% inhibition) | D (76-100% inhibition) | D (76-100% inhibition) | C (51-75% inhibition) | D (76-100% inhibition) | D (76-100% inhibition) | 76 to 100 | 76 to 100
CO[C@H]1CC[C@@H](Nc2nc(-c3nccn3C)nc3sc(-c4ccn(C(C)C)n4)c(C)c23)C1 [drawing 919] | D (76-100% inhibition) | C (51-75% inhibition) | D (76-100% inhibition) | D (76-100% inhibition) | D (76-100% inhibition) | D (76-100% inhibition) | 51 to 75 | 51 to 75
CO[C@H]1C[C@@H](Nc2nc(-c3nccn3C)nc3sc(C(=O)NC(C)C)c(-c4ccccc4)c23)C1 [drawing 920] | D (76-100% inhibition) | D (76-100% inhibition) | D (76-100% inhibition) | D (76-100% inhibition) | D (76-100% inhibition) | C (51-75% inhibition) | 51 to 75 | 51 to 75
COCCNC(=O)c1sc2nc(-c3nccn3C)nc(N[C@H]3C[C@@H](OC)C3)c2c1-c1ccccc1 [drawing 921] | D (76-100% inhibition) | D (76-100% inhibition) | D (76-100% inhibition) | D (76-100% inhibition) | C (51-75% inhibition) | D (76-100% inhibition) | 51 to 75 | 51 to 75
CO[C@H]1C[C@@H](Nc2nc(-c3nccn3C)nc3sc(C(=O)N4CCOCC4)c(-c4ccccc4)c23)C1 [drawing 922] | C (51-75% inhibition) | D (76-100% inhibition) | C (51-75% inhibition) | D (76-100% inhibition) | C (51-75% inhibition) | C (51-75% inhibition) | 51 to 75 | 51 to 75
COC1CCN(C(=O)c2sc3nc(-c4nccn4C)nc(N[C@H]4C[C@@H](OC)C4)c3c2-c2ccccc2)C1 (some centres unmarked) [drawing 923] | C (51-75% inhibition) | C (51-75% inhibition) | C (51-75% inhibition) | C (51-75% inhibition) | C (51-75% inhibition) | C (51-75% inhibition) | 51 to 75 | 51 to 75
CO[C@H]1CC[C@@H](Nc2nc(-c3nccn3C)nc3sc(C(=O)NC(C)C)c(-c4ccccc4)c23)C1 [drawing 924] | D (76-100% inhibition) | C (51-75% inhibition) | D (76-100% inhibition) | D (76-100% inhibition) | D (76-100% inhibition) | D (76-100% inhibition) | 76 to 100 | 76 to 100
COCCNC(=O)c1sc2nc(-c3nccn3C)nc(N[C@@H]3CC[C@H](OC)C3)c2c1-c1ccccc1 [drawing 925] | D (76-100% inhibition) | D (76-100% inhibition) | D (76-100% inhibition) | D (76-100% inhibition) | D (76-100% inhibition) | D (76-100% inhibition) | 76 to 100 | 76 to 100
